Data reported in BindingDB's records for PubMed 26804741 (Helmholtz Institute For Pharmaceutical Research Saarland …, 2016).

Test: Inhibition of Pseudomonas aeruginosa LecB

| IC50 [µM] | Structure (SMILES) |
| --- | --- |
| 8 | CCCCCCCCO[C@@H]1O[C@H](CO)[C@H](O[C@@H]2O[C@H](CO)[C@H](O)[C@H](O)[C@H]2NC(C)=O)[C@H](O)[C@H]1OCCC |
| 100 | CO[C@H]1O[C@H]([C@@H](O)CNS(=O)(=O)c2c(C)cc(C)cc2C)[C@@H](O)[C@H](O)[C@@H]1O |
| 0.14 | CC[C@H](C)[C@H](NC(=O)[C@H](Cc1cnc[nH]1)NCCCC[C@H](NC(=O)[C@@H](NC(=O)[C@H](CCCCN)NC(=O)[C@H](Cc1ccccc1)NC(=O)[C@H](CCCCNC(=O)[C@H](CC(C)C)NC(=O)[C@@H]1CCCN1C(=O)[C@@H](N)CCCCNC(=O)C[C@@H]1O[C@@H](C)[C@@H](O)[C@@H](O)[C@@H]1O)NC(=O)[C@H](CC(C)C)NC(=O)[C@@H]1CCCN1C(=O)[C@@H](N)CCCCNC(=O)C[C@@H]1O[C@@H](C)[C@@H](O)[C@@H](O)[C@@H]1O)[C@@H](C)CC)C(=O)N[C@H](C(=O)N[C@@H](CCCCN)C(=O)N[C@@H](Cc1ccccc1)C(=O)N[C@@H](CCCCN[C@@H](CC(C)C)C(=O)N1CCC[C@H]1C(=O)N[C@@H](CCCCNC(=O)C[C@@H]1O[C@@H](C)[C@@H](C)[C@@H](C)[C@@H]1O)C(=O)O)C(=O)N[C@@H](CC(C)C)C(=O)N1CCC[C@H]1C(=O)N[C@@H](CCCCNC(=O)C[C@@H]1O[C@@H](C)[C@@H](O)[C@@H](O)[C@@H]1O)C(=O)O)[C@@H](C)CC)C(N)=O |
